Laboratory results from patent US20230218624A1 (Urovant Sciences GmbH, priority 2017, published 2023).
Read-outs that look alike come from different tables or passages of the source. Marks after values point to notes of the source that are not given here.

Experiments:
Type in all cases: in vivo, human
[1] = system: males and females with OAB; assay: Phase 3 12-week placebo controlled study in OAB; conditions: Week 12
Procedure: After eight weeks, the dose could be increased to 100 mg once daily as clinically indicated.

[2] = Drug interaction: effect of co-administered medication on vibegron PK
Text: However, these interactions are not expected to be clinically significant.

[3] = Multiple rising dose Phase 1 pharmacokinetics
Text: The steady state AUC geometric mean accumulation ratios were ˜2 in young male subjects and ˜2.8 in elderly subjects (male and female).
Although exposures were similar in middle-aged males when compared to young males, plasma concentrations were higher in elderly compared to middle-aged and young subjects. […] Furthermore, the steady state AUC geometric mean accumulation ratios were ˜2 in young males and ˜2.8 in the elderly.

[4] = vibegron 100 mg single dose with multiple doses of 240 mg or 180 mg diltiazem
[5] = elderly female subjects, 100 mg
[6] = multiple dose 25 mg, after 14 days, healthy young males
[7] = multiple dose 50 mg, after 14 days, Japanese healthy young males
[8] = multiple dose 50 mg, after 14 days, healthy young males
[9] = multiple dose 100 mg, after 14 days, Japanese healthy young males
[10] = multiple dose 100 mg, after 14 days, elderly Japanese
[11] = multiple dose 100 mg, after 14 days, elderly male and female
[12] = multiple dose 100 mg, after 14 days, healthy young males
[13] = multiple dose 150 mg, after 14 days, healthy young males
[14] = multiple dose 150 mg, after 14 days, middle-aged female
[15] = multiple dose 150 mg, after 14 days, middle-aged male
[16] = multiple dose 200 mg, after 14 days, Japanese healthy young males
[17] = multiple dose 200 mg, after 14 days, healthy young males
[18] = multiple dose 300 mg, after 14 days, healthy young males
[19] = multiple dose 400 mg, after 14 days, healthy young males

In the case of `O=C(Nc1ccc(C[C@@H]2CC[C@H]([C@H](O)c3ccccc3)N2)cc1)[C@@H]1CCc2nccc(=O)n21` [Vibegron, (6S)—N-[4-[[(2S,5R)-5-[(R)-hydroxy(phenyl)methyl]pyrrolidin-2-yl]methyl]phenyl]-4-oxo-7,8-dihydro-6H-pyrrolo[1,2-a]pyrimidine-6-carboxamide], the “Micturitions, LS mean placebo adjusted change from baseline (95% CI)” value ([1]; 50 mg) is reported as −0.86 (−1.12, −0.60), the “Total incontinence episodes, LS mean placebo adjusted change from baseline (95% CI)” value ([1]; 50 mg) is reported as −0.30 (−0.49, −0.12) and the “Urge urinary incontinence episodes, LS mean placebo adjusted change from baseline (95% CI)” value ([1]; 50 mg) is reported as −0.27 (−0.44, −0.10). The “Urgency episodes, LS mean placebo adjusted change from baseline (95% CI)” value ([1]; 50 mg) was −0.51 (−0.76, −0.25), the “Volume voided, LS mean placebo adjusted change from baseline (95% CI)” value ([1]; 50 mg) was 25.76 (20.02, 31.46) mL and the “Micturitions, LS mean placebo adjusted change from baseline (95% CI)” value ([1]; 100 mg) was −0.81 (−1.07, −0.55). For the same compound, the “Total incontinence episodes, LS mean placebo adjusted change from baseline (95% CI)” value ([1]; 100 mg) was −0.43 (−0.61, −0.24), the “Urge urinary incontinence episodes, LS mean placebo adjusted change from baseline (95% CI)” value ([1]; 100 mg) was −0.39 (−0.55, −0.22) and the “Urgency episodes, LS mean placebo adjusted change from baseline (95% CI)” value ([1]; 100 mg) was −0.67 (−0.93, −0.42). For the same compound, the “Volume voided, LS mean placebo adjusted change from baseline (95% CI)” value ([1]; 100 mg) was 22.16 (16.44, 27.89) mL, the “effect of tolterodine ER 4 mg on the pharmacokinetics of vibegron” value ([2]; in vivo) was “no effect” and the “Cmax of vibegron, geometric mean” value ([2]; vibegron 100 mg single dose + diltiazem ER 240 mg QD) was 167 ng/mL. The “GM AUC0-inf increase” value [2, 4] was 63%, the “GM Cmax increase” value [2, 4] was 68% and the “GM t1/2” value ([2]; vibegron with diltiazem) was 75.4 h. For the same compound, the “steady state Cmax, elderly compared to young males” value ([3]; 100 mg QD) was roughly 1.3 fold, the “fe0-24 hr,ss” value ([3]; 100 mg, elderly subjects) was roughly 17% and the “fe0-24 hr,ss” value ([3]; 100 and 150 mg, young males) was roughly 14%. For the same compound, the “steady state AUC higher in middle-aged females vs middle-aged males” value ([3]; 100 or 150 mg) was roughly 1.5 fold, the “steady state exposure (AUC0-24) higher in elderly Japanese vs elderly non-Japanese” value ([3]; Day 14) was 35% and the “steady state AUC0-24 hr” value [3, 5] was 2620 ng·h/mL. For the same compound, the “steady state Cmax” value [3, 5] was 278 ng/mL, the “renal clearance (CLR) at steady state” value ([3]; elderly subjects (male and female)) was 127 mL/min and the AUC0-24 ([3]; human, plasma, oral, multiple dose 150 mg, after 14 days, middle-aged female, read-out: AUC0-24) was 3180 ± 925 ng·h/mL. For the same compound, the “steady state exposures higher in Japanese vs non-Japanese young males” value ([3]; multiple dose) was roughly 30%, the AUC0-24 [3, 6] was 164 ± 25.9 ng·h/mL and the Cmax [3, 6] was 15.6 ± 6.93 ng/mL. The “t1/2 (harmonic mean ± pseudo SD)” value [3, 6] was 94.0 ± 9.60 h, the AUC0-24 [3, 7] was 613 ± 296 ng·h/mL and the Cmax [3, 7] was 56.9 ± 34.2 ng/mL. The “t1/2 (harmonic mean ± pseudo SD)” value [3, 7] was 69.4 ± 6.6 h, the AUC0-24 [3, 8] was 507 ± 176 ng·h/mL and the Cmax [3, 8] was 41.5 ± 12.3 ng/mL. For the same compound, the Ctrough [3, 8] was 15.2 ± 5.07 ng/mL, the “t1/2 (harmonic mean ± pseudo SD)” value [3, 8] was 77.2 ± 8.9 h and the AUC0-24 [3, 9] was 1710 ± 542 ng·h/mL. The “t1/2 (harmonic mean ± pseudo SD)” value [3, 9] was 56.8 ± 19.2 h, the AUC0-24 [3, 10] was 2920 ± 693 ng·h/mL and the “t1/2 (harmonic mean ± pseudo SD)” value [3, 10] was 75.1 ± 3.9 h. For the same compound, the AUC0-24 [3, 11] was 2230 ± 671 ng·h/mL, the Cmax [3, 11] was 224 ± 92.0 ng/mL and the Ctrough [3, 11] was 54.2 ± 15.3 ng/mL. The “t1/2 (harmonic mean ± pseudo SD)” value [3, 11] was 88.4 ± 10.7 h, the AUC0-24 [3, 12] was 1280 ± 529 ng·h/mL and the Cmax [3, 12] was 169 ± 80.9 ng/mL. For the same compound, the Ctrough [3, 12] was 31.9 ± 11.5 ng/mL, the “t1/2 (harmonic mean ± pseudo SD)” value [3, 12] was 79.7 ± 11.5 h and the AUC0-24 [3, 13] was 2285 ± 1140 ng·h/mL. The Cmax [3, 13] was 305 ± 215 ng/mL, the “t1/2 (harmonic mean ± pseudo SD)” value [3, 13] was 79.2 ± 9.2 h and the Cmax [3, 14] was 246 ± 139 ng/mL. The “t1/2 (harmonic mean ± pseudo SD)” value [3, 14] was 83.1 ± 17.2 h, the AUC0-24 [3, 15] was 2170 ± 452 ng·h/mL and the Cmax [3, 15] was 293 ± 67.1 ng/mL. The “t1/2 (harmonic mean ± pseudo SD)” value ([3]; multiple dose 150 mg, middle-aged male, determined after 28 days of dosing) was 72.7 ± 16.1^d hr, the AUC0-24 [3, 16] was 4370 ± 618 ng·h/mL and the Cmax [3, 16] was 631 ± 154 ng/mL. The “t1/2 (harmonic mean ± pseudo SD)” value [3, 16] was 59.5 ± 1.9 h, the AUC0-24 [3, 17] was 3200 ± 1120 ng·h/mL and the Cmax [3, 17] was 313 ± 168 ng/mL. For the same compound, the “t1/2 (harmonic mean ± pseudo SD)” value [3, 17] was 64.7 ± 6.5 h, the AUC0-24 [3, 18] was 6980 ± 1040 ng·h/mL and the “t1/2 (harmonic mean ± pseudo SD)” value [3, 18] was 61.7 ± 7.3 h. For the same compound, the AUC0-24 [3, 19] was 10500 ± 2140 ng·h/mL, the Cmax [3, 19] was 1400 ± 257 ng/mL and the “t1/2 (harmonic mean ± pseudo SD)” value [3, 19] was 58.9 ± 5.9 h. For the same compound, the “time to steady state concentrations” value ([3]; once daily dosing) was no more than 7 days and the “higher exposures (AUC) in females compared with males” value ([3]; regardless of age) was 50%.
